24 compounds from patent publication US11021493B2, “1,4-thiazine dioxide and 1,2,4-thiadiazine dioxide derivatives as beta-secretase inhibitors and methods of use” (AMGEN INC., priority 2016, dated 2021) can be followed below.

In assay [1] the target is T1, BACE1 (Homo sapiens (Human), UniProt P56817). Briefly: In vitro BACE1 cell-based assay (Aβ40 in conditioned medium of cells stably expressing APP, HTRF). In general terms: Time-resolved FRET reads energy transfer from a long-lived donor to a nearby acceptor.
Target sequence in this assay (P56817 46-501, species assumed): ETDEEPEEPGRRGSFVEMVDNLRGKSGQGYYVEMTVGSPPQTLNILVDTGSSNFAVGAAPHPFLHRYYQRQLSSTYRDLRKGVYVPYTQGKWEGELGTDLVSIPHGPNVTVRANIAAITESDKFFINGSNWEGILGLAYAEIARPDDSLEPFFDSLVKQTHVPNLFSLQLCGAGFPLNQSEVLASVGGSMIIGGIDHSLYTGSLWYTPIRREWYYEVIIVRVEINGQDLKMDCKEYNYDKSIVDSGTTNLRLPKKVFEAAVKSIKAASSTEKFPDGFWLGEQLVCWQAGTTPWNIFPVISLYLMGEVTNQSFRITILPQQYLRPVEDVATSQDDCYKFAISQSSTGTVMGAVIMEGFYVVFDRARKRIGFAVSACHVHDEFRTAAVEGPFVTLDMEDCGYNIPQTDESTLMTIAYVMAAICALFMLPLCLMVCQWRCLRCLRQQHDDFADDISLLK
For a further assay, the target named is Cathepsin D (CatD) (Homo sapiens (Human), UniProt P07339). Briefly: In vitro enzymatic Cathepsin D (CatD) FRET assay. It is filed as biochemical. Conditions: read-out: Cat D Enzyme IC50.
In another assay the target is human recombinant BACE2 (Homo sapiens (Human), UniProt Q9Y5Z0). Briefly: In vitro enzymatic BACE2 FRET assay. In kind it is biochemical. Conditions: read-out: BACE2 Enzyme IC50.
Assay [2] addresses T1, BACE1. Description: In vitro enzymatic BACE1 FRET assay. In kind it is biochemical. Conditions: read-out: BACE1 Enzyme IC50.
Target sequence in this assay (P56817 46-501): as the sequence (P56817 46-501, species assumed) above
Where [3] appears, read: Aβ40 in conditioned media after 24 h incubation.

Chain of human recombinant BACE2 (Q9Y5Z0 63-518): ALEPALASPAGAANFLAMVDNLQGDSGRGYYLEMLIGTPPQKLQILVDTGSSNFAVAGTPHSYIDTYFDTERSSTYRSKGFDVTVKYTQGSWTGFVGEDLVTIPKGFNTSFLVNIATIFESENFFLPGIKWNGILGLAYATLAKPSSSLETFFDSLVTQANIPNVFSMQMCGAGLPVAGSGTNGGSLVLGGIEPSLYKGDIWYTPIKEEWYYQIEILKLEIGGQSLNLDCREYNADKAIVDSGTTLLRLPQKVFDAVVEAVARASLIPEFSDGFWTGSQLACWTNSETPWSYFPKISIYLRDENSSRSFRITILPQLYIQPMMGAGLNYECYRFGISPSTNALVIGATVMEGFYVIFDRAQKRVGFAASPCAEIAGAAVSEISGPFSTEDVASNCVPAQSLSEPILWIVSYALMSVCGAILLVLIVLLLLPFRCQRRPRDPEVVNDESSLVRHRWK
Chain of Cathepsin D (CatD) (P07339 65-412, species assumed): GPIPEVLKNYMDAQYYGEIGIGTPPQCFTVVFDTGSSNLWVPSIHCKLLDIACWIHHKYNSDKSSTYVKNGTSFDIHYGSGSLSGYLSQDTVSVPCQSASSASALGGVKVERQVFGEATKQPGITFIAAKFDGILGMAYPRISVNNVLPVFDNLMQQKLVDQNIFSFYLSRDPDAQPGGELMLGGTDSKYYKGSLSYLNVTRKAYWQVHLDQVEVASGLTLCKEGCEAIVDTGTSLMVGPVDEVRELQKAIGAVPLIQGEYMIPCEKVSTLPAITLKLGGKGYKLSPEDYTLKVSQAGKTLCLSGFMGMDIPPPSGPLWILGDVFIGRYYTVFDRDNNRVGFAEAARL

For orientation: IC50 means the concentration that gives 50% inhibition. In the case of `C#C[C@@H](CC)Oc1cnc(/C(F)=C/c2ccc(F)c([C@]3(C)CS(=O)(=O)C(C)(C)C(N)=N3)c2)cn1` (single isomer, unassigned) [Example 177], the IC50 was found to be 600 nM on BACE1 [1] (setting [3]), 61400 nM on Cathepsin D (CatD), 101 nM on human recombinant BACE2 and 208 nM on BACE1 [2].
With `C#C[C@H](CC)Oc1cnc(/C(F)=C/c2ccc(F)c([C@]3(C)CS(=O)(=O)C(C)(C)C(N)=N3)c2)cn1` (single isomer, unassigned) [Example 178], the IC50 on BACE1 [1] (setting [3]) is 22 nM; on Cathepsin D (CatD), 77600 nM; on human recombinant BACE2 it was 232 nM; on BACE1 [2], 3 nM.
In the case of `CC#C[C@@H](CC)Oc1cnc(/C(F)=C/c2ccc(F)c([C@]3(C)CS(=O)(=O)C(C)(C)C(N)=N3)c2)cn1` (single isomer, unassigned) [Example 198], the IC50 was 173 nM on BACE1 [1] (setting [3]), 38300 nM at Cathepsin D (CatD), 371 nM at human recombinant BACE2 and 113 nM on BACE1 [2].
In the same order, the values of `CC#C[C@H](CC)Oc1cnc(/C(F)=C/c2ccc(F)c([C@]3(C)CS(=O)(=O)C(C)(C)C(N)=N3)c2)cn1` (single isomer, unassigned) [Example 199] are 2 nM, 51200 nM, 102 nM and 4 nM.
In the case of `C#CCOc1cnc(/C(F)=C/c2ccc(F)c([C@@]3(C)N=C(N)C(C)(C)S(=O)(=O)[C@H]3F)c2)cn1` (single isomer, unassigned) [Example 200], the results for the IC50 against BACE1 [1], at human recombinant BACE2 and on BACE1 [2] were 206 nM, 86 nM and 18 nM, respectively.
As for `C#CCOc1cnc(/C(F)=C/c2ccc(F)c([C@@]3(C)N=C(N)C(C)(C)S(=O)(=O)[C@@H]3F)c2)cn1` (single isomer, unassigned) [Example 201], the IC50 against BACE1 [1] is 214 nM; at human recombinant BACE2 it was 82 nM; at BACE1 [2], 6 nM.
For the compound `CC#C[C@@H](C)Oc1cnc(/C(F)=C/c2ccc(F)c([C@]3(C)CS(=O)(=O)C(C)(C)C(N)=N3)c2)cn1` (single isomer, unassigned) [Example 207], the IC50 was determined as 2530 nM against BACE1 [1] (setting [3]), 57500 nM on Cathepsin D (CatD), 519 nM at human recombinant BACE2 and 507 nM at BACE1 [2].
On to `CC#C[C@H](C)Oc1cnc(/C(F)=C/c2ccc(F)c([C@]3(C)CS(=O)(=O)C(C)(C)C(N)=N3)c2)cn1` (single isomer, unassigned) [Example 208], for which the IC50 against BACE1 [1] (setting [3]) stood at 5 nM; on Cathepsin D (CatD) it was 79500 nM; on human recombinant BACE2 it was 107 nM; on BACE1 [2], 1 nM.
`CC1(C)C(N)=N[C@](C)(c2cc(/C=C(\F)c3cc4c(cn3)OCCO4)ccc2F)[C@@H](F)S1(=O)=O` (single isomer, unassigned) [Example 213]: the IC50 at BACE1 [1] (setting [3]) worked out at 3580 nM; at Cathepsin D (CatD), 172000 nM; at human recombinant BACE2 it was 683 nM; at BACE1 [2], 626 nM.
As for `CC1(C)C(N)=N[C@](C)(c2cc(/C=C(\F)c3cc4c(cn3)OCCO4)ccc2F)[C@H](F)S1(=O)=O` (single isomer, unassigned) [Example 214], the IC50 at BACE1 [1] (setting [3]) was determined as 5940 nM; at Cathepsin D (CatD) it was 303000 nM; on human recombinant BACE2, 851 nM; at BACE1 [2], 225 nM.
For the compound `CCC#C[C@@H](C)Oc1cnc(/C(F)=C/c2ccc(F)c([C@]3(C)CS(=O)(=O)C(C)(C)C(N)=N3)c2)cn1` (single isomer, unassigned) [Example 216], the IC50 at BACE1 [1] (setting [3]) came out at 5360 nM; at Cathepsin D (CatD) it was 29900 nM; at human recombinant BACE2, 364 nM; on BACE1 [2], 628 nM.
With `CCC#C[C@H](C)Oc1cnc(/C(F)=C/c2ccc(F)c([C@]3(C)CS(=O)(=O)C(C)(C)C(N)=N3)c2)cn1` (single isomer, unassigned) [Example 217], the IC50 turned out to be 288 nM at BACE1 [1] (setting [3]), 26800 nM at Cathepsin D (CatD), 233 nM at human recombinant BACE2 and 9 nM on BACE1 [2].
In the case of `C[C@]1(c2cc(/C=C(\F)c3ccc(Br)cn3)ccc2F)N=C(N)C2(CF)CC[C@@H]1S2(=O)=O` (stereo in doubt) [Example 101, (1R,4R,5S)-2-amino-4-(5-((Z)-2-(5-bromopyridin-2-yl)-2-fluorovinyl)-2-fluorophenyl)-1-(fluoromethyl)-4-methyl-8-thia-3-azabicyclo[3.2.1]oct-2-ene 8,8-dioxide], the IC50 against BACE1 [1] (setting [3]) was determined as 79 nM; at human recombinant BACE2 it was 13 nM; on BACE1 [2], 5 nM.
Turning to `C[C@]1(c2cc(/C=C(\F)c3ccc(C#N)cn3)ccc2F)N=C(N)C2(CF)CC[C@@H]1S2(=O)=O` (stereo in doubt) [Example 102, 6-((Z)-2-(3-((1S,2R,5R)-4-amino-5-(fluoromethyl)-2-methyl-8,8-dioxido-8-thia-3-azabicyclo[3.2.1]oct-3-en-2-yl)-4-fluorophenyl)-1-fluorovinyl)nicotinonitrile], the IC50 is 17 nM at BACE1 [1] (setting [3]), greater than 133000 nM at Cathepsin D (CatD), 32 nM on human recombinant BACE2 and 5 nM at BACE1 [2].
In the same order, the values of `C[C@@]1(c2cc(/C=C(\F)c3ccc(Cl)cn3)ccc2F)CS(=O)(=O)C2(CCC2)C(N)=N1` [Example 100, (R,Z)-9-amino-7-(5-(2-(5-chloropyridin-2-yl)-2-fluorovinyl)-2-fluorophenyl)-7-methyl-5-thia-8-azaspiro[3.5]non-8-ene 5,5-dioxide] are 472 nM, 91000 nM, 7 nM and 10 nM.
For the compound `C#CCOc1cnc(/C(F)=C/c2ccc(F)c([C@]3(C)CS(=O)(=O)N(C)C(N)=N3)c2)cn1` [Example 112, (R,Z)-3-amino-5-(2-fluoro-5-(2-fluoro-2-(5-(prop-2-yn-1-yloxy)pyrazin-2-yl)vinyl)phenyl)-2,5-dimethyl-5,6-dihydro-2H-1,2,4-thiadiazine 1,1-dioxide], the values for the IC50 at BACE1 [1], at Cathepsin D (CatD) and at BACE1 [2] were 8 nM, 35800 nM and 3 nM, respectively.
Regarding `CN1C(N)=N[C@](C)(c2cc(/C=C(\F)c3cnc(OCc4ncco4)cn3)ccc2F)CS1(=O)=O` [Example 116, (R,Z)-3-amino-5-(2-fluoro-5-(2-fluoro-2-(5-(oxazol-2-ylmethoxy)pyrazin-2-yl)vinyl)phenyl)-2,5-dimethyl-5,6-dihydro-2H-1,2,4-thiadiazine 1,1-dioxide], the 50% inhibitory concentration (IC50) at BACE1 [1] (setting [3]) is 1 nM; at human recombinant BACE2, 45 nM; at BACE1 [2], 3 nM.
As for `C#CCOc1cnc(/C(F)=C/c2ccc(F)c([C@@]3(C)N=C(N)N(C)S(=O)(=O)C3(C)C)c2)cn1` [Example 183, (R,Z)-3-amino-5-(2-fluoro-5-(2-fluoro-2-(5-(prop-2-yn-1-yloxy)pyrazin-2-yl)vinyl)phenyl)-2,5,6,6-tetramethyl-5,6-dihydro-2H-1,2,4-thiadiazine 1,1-dioxide], the IC50 turned out to be 75 nM against BACE1 [1] (setting [3]) and 13 nM at BACE1 [2].
Take `CC1(C)C(N)=N[C@](C)(c2cc(/C=C(\F)c3cnc(Cl)cn3)cc(F)c2F)CS1(=O)=O` [Example 193, (R,Z)-5-amino-3-(5-(2-(5-chloropyrazin-2-yl)-2-fluorovinyl)-2,3-difluorophenyl)-3,6,6-trimethyl-3,6-dihydro-2H-1,4-thiazine 1,1-dioxide]: the IC50 against BACE1 [1] (setting [3]) worked out at 833 nM; on Cathepsin D (CatD), 82300 nM; at BACE1 [2], 121 nM.
Regarding `C#CCOc1cnc(/C(F)=C/c2ccc(F)c([C@@]3(C)N=C(N)C(C)(C)S(=O)(=O)C3(F)F)c2)cn1` [Example 202, (R,Z)-5-amino-2,2-difluoro-3-(2-fluoro-5-(2-fluoro-2-(5-(prop-2-yn-1-yloxy)pyrazin-2-yl)vinyl)phenyl)-3,6,6-trimethyl-3,6-dihydro-2H-1,4-thiazine 1,1-dioxide], the IC50 is 9570 nM against BACE1 [1], 870 nM at human recombinant BACE2 and 166 nM at BACE1 [2].
Consider `Cc1cc(COc2cnc(/C(F)=C/c3cc(F)c(F)c([C@]4(C)CS(=O)(=O)N(C)C(N)=N4)c3)cn2)on1` [Example 221, (R,Z)-3-amino-5-(2,3-difluoro-5-(2-fluoro-2-(5-((3-methylisoxazol-5-yl)methoxy)pyrazin-2-yl)vinyl)phenyl)-2,5-dimethyl-5,6-dihydro-2H-1,2,4-thiadiazine 1,1-dioxide], for which the half-inhibitory concentration (IC50) against BACE1 [1] worked out at 215 nM; at human recombinant BACE2, 197 nM; on BACE1 [2] it was 38 nM.
On to `C=CCOc1cnc(/C(F)=C/c2cc(F)c(F)c([C@]3(C)CS(=O)(=O)N(C)C(N)=N3)c2)cn1` [Example 227, (R,Z)-5-(5-(2-(5-(allyloxy)pyrazin-2-yl)-2-fluorovinyl)-2,3-difluorophenyl)-3-amino-2,5-dimethyl-5,6-dihydro-2H-1,2,4-thiadiazine 1,1-dioxide], for which the figures for the IC50 against BACE1 [1] and at BACE1 [2] were 427 nM and 46 nM, respectively.
As to `CN1C(N)=N[C@](C)(c2cc(/C=C(\F)c3cnc(OCC#CCO)cn3)ccc2F)CS1(=O)=O` [Example 252, (R,Z)-3-amino-5-(2-fluoro-5-(2-fluoro-2-(5-((4-hydroxybut-2-yn-1-yl)oxy)pyrazin-2-yl)vinyl)phenyl)-2,5-dimethyl-5,6-dihydro-2H-1,2,4-thiadiazine 1,1-dioxide], the IC50 against BACE1 [1] (setting [3]) came to 7 nM; on human recombinant BACE2, 56 nM; on BACE1 [2], 10 nM.
As to `C[C@]1(c2cc(/C=C(/F)C3CCCO3)ccc2F)N=C(N)[C@@]2(CF)CC[C@@H]1S2(=O)=O` (stereo partly drawn) [Example 278, (1R,4R,5S)-2-amino-4-(2-fluoro-5-((E)-2-fluoro-2-(tetrahydrofuran-2-yl)vinyl)phenyl)-1-(fluoromethyl)-4-methyl-8-thia-3-azabicyclo[3.2.1]oct-2-ene 8,8-dioxide], the IC50 against BACE1 [1] (setting [3]) stood at 1980 nM; on BACE1 [2], 1110 nM.
